From patent publication US10336730B2, “Substituted glycine derived FXIA inhibitors” (BRISTOL-MYERS SQUIBB COMPANY, priority 2015, dated 2019)

Tests used:
Type in all cases: biochemical
[1] = molecular target: T1, purified human plasma kallikrein (Homo sapiens, UniProt P03952); experiment: Plasma kallikrein enzyme inhibition assay (chromogenic substrate S-2302), Ki; settings: substrate S-2302, pH 7.5
T1 construct: purchased Enzyme Research Laboratories
Procedure: The effectiveness of compounds of the present invention as inhibitors of the coagulation Factors XIa, VIIa, IXa, Xa, XIIa, plasma kallikrein, thrombin, chemytrypsin or trypsin can be determined using a relevant purified serine protease, respectively, and an appropriate synthetic substrate. The rate of hydrolysis of the chromogenic or fluorogenic substrate by the relevant serine protease was measured both in the absence and presence of compounds of the present invention. […] A decrease in the rate of absorbance or fluorescence change in the presence of inhibitor is indicative of enzyme inhibition. Such methods are known to one skilled in the art. The results of this assay are expressed as the inhibitory constant, Ki.
Plasma kallikrein determinations were made in 0.1 M sodium phosphate buffer at a pH of 7.5 containing 0.1-0.2 M sodium chloride and 0.5% PEG 8000. Determinations were made using purified human plasma kallikrein (Enzyme Research Laboratories) at a final assay concentration of […] and the synthetic substrate S-2302 (H-(D)-Pro-Phe-Arg-pNA; CHROMOGENIX®) at a concentration of 0.00008-0.0004 M.
Values of Ki were determined by allowing the protease to react with the substrate in the presence of the inhibitor. Reactions were allowed to go for periods of 20-180 minutes (depending on the protease) and the velocities (rate of absorbance or fluorescence change versus time) were measured. The following relationships were used to calculate Ki values: (Vmax*S)/(Km+S) (vo−vs)/vs=I/(Ki*(1+S/Km)) for a competitive inhibitor with one binding site; or vs/vo=A+(B−A)/(1+(IC50/(I)^n)); and Ki=IC50/(1+S/Km) for a competitive inhibitor where: […]

[2] = molecular target: T2, purified human Factor XIa (Homo sapiens, UniProt P03951); experiment: Factor XIa enzyme inhibition assay (chromogenic substrate S-2366), Ki; settings: substrate S-2366, pH 7.4
T2 construct: purchased Haematologic Technologies
Procedure, shortened: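 Purified human Factor XIa ([…] final) with chromogenic substrate S-2366 (0.0002-0.001 M) in 50 mM HEPES pH 7.4, 145 mM NaCl, 5 mM KCl, 0.1% PEG 8000. Velocities measured over 20-180 minutes with and without inhibitor; Ki derived assuming competitive inhibition, e.g. Ki=IC50/(1+S/Km).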

[3] = system: citrated normal human plasma; experiment: Activated Partial Thromboplastin Time (aPTT) plasma clotting assay; settings: inhibitor concentration required to increase the clotting time by 1.5 times
Description: The effectiveness of compounds of the present invention as inhibitors of coagulation can be determined using a standard or modified clotting assay. An increase in the plasma clotting time in the presence of inhibitor is indicative of anticoagulation. Relative clotting time is the clotting time in the presence of an inhibitor divided by the clotting time in the absence of an inhibitor. The results of this assay may be expressed as IC1.5× or IC2×, the inhibitor concentration required to increase the clotting time by 1.5 times or 2 times, respectively, relative to the clotting time in the absence of the inhibitor. The IC1.5× or IC2× is found by linear interpolation from relative clotting time versus inhibitor concentration plots using inhibitor concentrations that span the IC1.5× or IC2×.
Clotting times are determined using citrated normal human plasma as well as plasma obtained from a number of laboratory animal species (e.g., rat, or rabbit). A compound is diluted into plasma beginning with a 10 mM DMSO stock solution. The final concentration of DMSO is less than 2%. Plasma clotting assays are performed in an automated coagulation analyzer (Sysmex, Dade-Behring, Illinois). Similarly, clotting times can be determined from laboratory animal species or humans dosed with compounds of the invention.
Activated Partial Thromboplastin Time (aPTT) is determined using ACTIN® FSL (Dade-Behring, Illinois) following the directions in the package insert. Plasma (0.05 mL) is warmed to 37° C. for 1 minute. ACTIN® FSL (0.05 mL) is added to the plasma and incubated for an additional 2 to 5 minutes. Calcium chloride (25 mM, 0.05 mL) is added to the reaction to initiate coagulation. The clotting time is the time in seconds from the moment calcium chloride is added until a clot is detected.

T1 sequence (P03952 391-638 limits assumed): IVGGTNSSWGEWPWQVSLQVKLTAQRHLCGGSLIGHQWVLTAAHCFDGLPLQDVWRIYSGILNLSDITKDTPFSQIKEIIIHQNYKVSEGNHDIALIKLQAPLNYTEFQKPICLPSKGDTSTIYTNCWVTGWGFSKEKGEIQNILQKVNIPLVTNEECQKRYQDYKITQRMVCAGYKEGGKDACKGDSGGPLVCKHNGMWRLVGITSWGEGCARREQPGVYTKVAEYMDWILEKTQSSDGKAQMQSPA
T1 sequence (P03952 20-390 partner limits assumed): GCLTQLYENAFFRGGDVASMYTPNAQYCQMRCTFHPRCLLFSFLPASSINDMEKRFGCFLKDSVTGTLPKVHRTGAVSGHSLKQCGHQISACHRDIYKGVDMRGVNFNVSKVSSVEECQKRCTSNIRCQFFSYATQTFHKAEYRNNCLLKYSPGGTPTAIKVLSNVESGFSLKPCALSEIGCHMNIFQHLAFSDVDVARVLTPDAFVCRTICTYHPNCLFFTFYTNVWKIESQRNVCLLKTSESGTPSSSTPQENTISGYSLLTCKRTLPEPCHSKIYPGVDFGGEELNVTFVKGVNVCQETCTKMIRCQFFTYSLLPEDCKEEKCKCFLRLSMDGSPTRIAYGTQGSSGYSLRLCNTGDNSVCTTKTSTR
T2 sequence (P03951 388-625 limits assumed): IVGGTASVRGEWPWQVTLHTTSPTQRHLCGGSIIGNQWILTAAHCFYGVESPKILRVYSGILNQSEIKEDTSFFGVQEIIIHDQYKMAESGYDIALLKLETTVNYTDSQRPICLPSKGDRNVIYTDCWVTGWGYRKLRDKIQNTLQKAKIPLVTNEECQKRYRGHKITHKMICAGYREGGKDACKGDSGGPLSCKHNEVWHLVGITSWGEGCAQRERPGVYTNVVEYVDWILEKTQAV
T2 sequence (P03951 19-387 partner limits assumed): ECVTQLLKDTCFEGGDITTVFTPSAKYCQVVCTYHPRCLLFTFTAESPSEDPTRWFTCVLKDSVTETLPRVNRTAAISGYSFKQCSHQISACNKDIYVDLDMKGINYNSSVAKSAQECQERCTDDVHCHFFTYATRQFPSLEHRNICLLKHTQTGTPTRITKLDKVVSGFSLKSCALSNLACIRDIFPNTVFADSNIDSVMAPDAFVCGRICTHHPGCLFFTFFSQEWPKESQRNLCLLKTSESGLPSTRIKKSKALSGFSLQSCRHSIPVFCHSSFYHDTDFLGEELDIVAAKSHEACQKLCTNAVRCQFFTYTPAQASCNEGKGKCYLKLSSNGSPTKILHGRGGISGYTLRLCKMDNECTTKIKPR

Row | Ki [1] [µM] | Ki [2] [µM] | SMILES | aPTT (IC1.5×) [3] [µM]
1 | 0.036 | 0.00064 | O=C(O)c1ccc(NC(=O)[C@H](Cc2ccccc2)n2cnc(-c3c(-n4cc(Cl)nn4)ccc(Cl)c3F)cc2=O)cc1 [Example 9, (S)-4-(2-(4-(3-chloro-6-(4-chloro-1H-1,2,3-triazol-1-yl)-2-fluorophenyl)-6-oxopyrimidin-1(6H)-yl)-3-phenylpropanamido)benzoic Acid] | 0.91
2 | 3.86 | 0.104 | COC(=O)Cn1cc(NC(=O)[C@H](Cc2ccccc2)n2cnc(-c3cc(Cl)ccc3-n3cc(Cl)nn3)cc2=O)cn1 [Example 10, Methyl 2-{4-[(2S)-2-{4-[5-chloro-2-(4-chloro-1H-1,2,3-triazol-1-yl)phenyl]-6-oxo-1,6-dihydropyrimidin-1-yl}-3-phenylpropanamido]-1H-pyrazol-1-yl}acetate] | –
3 | 2.1 | 0.0564 | O=C(O)Cn1cc(NC(=O)[C@H](Cc2ccccc2)n2cnc(-c3cc(Cl)ccc3-n3cc(Cl)nn3)cc2=O)cn1 [Example 11, 2-{4-[(2S)-2-{4-[5-Chloro-2-(4-chloro-1H-1,2,3-triazol-1-yl)phenyl]-6-oxo-1,6-dihydropyrimidin-1-yl}-3-phenyl-propanamido]-1H-pyrazol-1-yl}acetic Acid] | –
4 | 1.48 | 0.0357 | O=C(Nc1ccccc1)[C@H](Cc1ccccc1)n1cnc(-c2cc(Cl)ccc2-n2cc(Cl)nn2)cc1=O [Example 12, (S)-2-(4-(5-chloro-2-(4-chloro-1H-1,2,3-triazol-1-yl)phenyl)-6-oxopyrimidin-1(6H)-yl)-N,3-diphenylpropanamide] | –
5 | 0.984 | 0.0436 | O=C(Nc1ccncc1)[C@H](Cc1ccccc1)n1cnc(-c2cc(Cl)ccc2-n2cc(Cl)nn2)cc1=O [Example 13, (S)-2-(4-(5-chloro-2-(4-chloro-1H-1,2,3-triazol-1-yl)phenyl)-6-oxopyrimidin-1(6H)-yl)-3-phenyl-N-(pyridin-4-yl)propanamide] | –
6 | 0.257 | 0.026 | O=C(Nc1ccc2[nH]c(C(F)(F)F)nc2c1)[C@H](Cc1ccccc1)n1cnc(-c2cc(Cl)ccc2-n2cc(Cl)nn2)cc1=O [Example 16, (S)-2-(4-(5-chloro-2-(4-chloro-1H-1,2,3-triazol-1-yl)phenyl)-6-oxopyrimidin-1(6H)-yl)-3-phenyl-N-(2-(trifluoromethyl)-1H-benzo[d]imidazol-5-yl)propanamide] | –
7 | 1.48 | 0.0994 | O=C(Nc1ccc2c(c1)OCO2)[C@H](Cc1ccccc1)n1cnc(-c2cc(Cl)ccc2-n2cc(Cl)nn2)cc1=O [Example 18, (S)—N-(benzo[d][1,3]dioxol-5-yl)-2-(4-(5-chloro-2-(4-chloro-1H-1,2,3-triazol-1-yl)phenyl)-6-oxopyrimidin-1(6H)-yl)-3-phenylpropanamide] | –
8 | 13.3 | 0.357 | O=C(NCc1ccccc1)[C@H](Cc1ccccc1)n1cnc(-c2cc(Cl)ccc2-n2cc(Cl)nn2)cc1=O [Example 19, (S)—N-benzyl-2-(4-(5-chloro-2-(4-chloro-1H-1,2,3-triazol-1-yl)phenyl)-6-oxopyrimidin-1(6H)-yl)-3-phenylpropanamide] | –
9 | – | 0.0066 | O=C1Cc2cc(NC(=O)[C@H](Cc3ccccc3)n3cnc(-c4cc(Cl)ccc4-n4cc(Cl)nn4)cc3=O)ccc2N1 [Example 23, (S)-2-(4-(5-chloro-2-(4-chloro-1H-1,2,3-triazol-1-yl)phenyl)-6-oxopyrimidin-1(6H)-yl)-N-(2-oxoindolin-5-yl)-3-phenylpropanamide] | 8.0
10 | – | 0.00644 | O=C(Nc1ccc2nccnc2c1)[C@H](Cc1ccccc1)n1cnc(-c2cc(Cl)ccc2-n2cc(Cl)nn2)cc1=O [Example 30, (S)-2-(4-(5-chloro-2-(4-chloro-1H-1,2,3-triazol-1-yl)phenyl)-6-oxopyrimidin-1(6H)-yl)-3-phenyl-N-(quinoxalin-6-yl)propanamide] | 15.2
11 | – | 0.0198 | O=C(Nc1ccc2c(=O)[nH]ccc2c1)[C@H](Cc1ccccc1)n1cnc(-c2cc(Cl)ccc2-n2cc(Cl)nn2)cc1=O [Example 96, (S)-2-(4-(5-chloro-2-(4-chloro-1H-1,2,3-triazol-1-yl)phenyl)-6-oxopyrimidin-1(6H)-yl)-N-(1-oxo-1,2-dihydroisoquinolin-6-yl)-3-phenylpropanamide] | 13.6
12 | – | 0.0128 | N#Cc1ccc(Cl)c(F)c1C1=CC(=O)N(C(Cc2ccccc2)C(=O)Nc2ccc(C(=O)O)cc2)CC1 (stereo not drawn) [Example 130, 4-{2-[4-(3-Chloro-6-cyano-2-fluorophenyl)-6-oxo-1,2,3,6-tetrahydropyridin-1-yl]-3-phenylpropanamido}benzoic Acid] | 17.5
13 | – | 0.00573 | O=C(O)c1ccc(NC(=O)[C@H](Cc2ccccc2)N2CCC(c3cc(Cl)ccc3-n3ccnn3)=CC2=O)cc1 [Example 136, 4-[(2S)-2-{4-[5-chloro-2-(1H-1,2,3-triazol-1-yl)phenyl]-6-oxo-1,2,3,6-tetrahydropyridin-1-yl}-3-phenylpropanamido]benzoic Acid] | –
14 | – | 0.00324 | O=C(O)c1ccc(NC(=O)[C@H](Cc2ccccc2)N2CCC(c3c(-n4ccnn4)ccc(Cl)c3F)=CC2=O)cc1 [Example 137, 4-[(2S)-2-{4-[3-chloro-2-fluoro-6-(1H-1,2,3-triazol-1-yl)phenyl]-6-oxo-1,2,3,6-tetrahydropyridin-1-yl}-3-phenylpropanamido]benzoic Acid] | –
15 | – | 0.552 | O=C(O)c1ccc(NC(=O)[C@H](Cc2ccc(NC(=O)C3CC3)cc2)N2CCC(c3c(F)ccc(Cl)c3F)=CC2=O)cc1 [Example 140, (S)-4-(2-(4-(3-chloro-2,6-difluorophenyl)-6-oxo-3,6-dihydropyridin-1(2H)-yl)-3-(4-(cyclopropanecarboxamido)phenyl)propanamido)benzoic Acid] | –
16 | – | 0.00092 | O=C(O)c1ccc(NC(=O)[C@H](Cc2ccc(NC(=O)C3CC3)cc2)N2CCC(c3cc(Cl)ccc3-n3cc(Cl)nn3)=CC2=O)cc1 [Example 141, (S)-4-(2-(4-(5-chloro-2-(4-chloro-1H-1,2,3-triazol-1-yl)phenyl)-6-oxo-3,6-dihydropyridin-1(2H)-yl)-3-(4-(cyclopropanecarboxamido)phenyl)propanamido)benzoic Acid] | 2.05
17 | – | 0.00173 | O=C(O)c1ccc(NC(=O)[C@H](Cc2ccccc2)N2CCC(c3cc(Cl)ccc3-n3cc(Cl)nn3)=CC2=O)cc1 [Example 142, (S)-4-(2-(4-(5-chloro-2-(4-chloro-1H-1,2,3-triazol-1-yl)phenyl)-6-oxo-3,6-dihydropyridin-1(2H)-yl)-3-phenylpropanamido)benzoic Acid] | 2.39
18 | 0.569 | 0.0055 | O=C(O)c1ccc(NC(=O)[C@H](Cc2ccccc2)n2ncc(-c3cc(Cl)ccc3-n3cc(C(F)(F)F)nn3)cc2=O)cc1 [Example 143, 4-[(2S)-2-(4-{5-Chloro-2-[4-(trifluoromethyl)-1H-1,2,3-triazol-1-yl]phenyl}-6-oxo-1,6-dihydropyridazin-1-yl)-3-phenyl-propanamido]benzoic Acid] | –
19 | 6.9 | 1.03 | O=C(O)c1ccc(NC(=O)[C@H](Cc2ccccc2)n2ncc(-c3c(F)ccc(Cl)c3F)cc2=O)cc1 [Example 144, 4-[(2S)-2-[4-(3-Chloro-2,6-difluorophenyl)-6-oxo-1,6-dihydropyridazin-1-yl]-3-phenylpropanamido]benzoic Acid] | –
